Patent US7964633B2, “Sulfonamide derivatives” (Hoffmann-La Roche Inc., priority 2006, dated 2011)
pIC50: −log10 of the molar value.

Experiments:
human liver FBPase = target: T1, human liver FBPase (Homo sapiens, UniProt P09467); assay: FBPase assay (malachite green phosphate release); type: biochemical; details: recombinant human liver FBPase, 50 μM fructose-1,6-bisphosphate, pH 7.2, 50 minutes at room temperature
T1 construct: host or cells: E. coli
T1 sequence (P09467 2-338 limits assumed): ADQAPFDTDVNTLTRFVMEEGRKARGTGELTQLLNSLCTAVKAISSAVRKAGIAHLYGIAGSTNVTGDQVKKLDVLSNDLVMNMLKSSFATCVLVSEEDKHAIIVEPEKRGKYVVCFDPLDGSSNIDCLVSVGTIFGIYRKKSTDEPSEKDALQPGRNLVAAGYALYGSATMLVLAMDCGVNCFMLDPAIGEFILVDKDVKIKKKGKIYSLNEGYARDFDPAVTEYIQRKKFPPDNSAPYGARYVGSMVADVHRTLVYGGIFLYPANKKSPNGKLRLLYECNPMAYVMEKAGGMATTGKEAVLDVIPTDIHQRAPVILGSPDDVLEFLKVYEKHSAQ
Experimental: The following tests were carried out for evaluating the inhibitory activity of the compounds of the present invention against human liver FBPase (Swissprot Data base reference PO9467, entry F16P_HUMAN).
Enzyme preparation: Human liver FBPase cDNA (NM_000507) was purchased from Origene Technologies, Inc, subcloned in a vector for expression in E. Coli., and sequenced. Recombinant human liver FBPase (hIFBPase) was purified according to the following protocol that uses heat denaturation similarly to that described by El-Maghrabi et. al. [El-Maghrabi, M. R. et al. “Isolation of a human liver fructose-1,6-bisphosphatase cDNA and expression of the protein in Escherichia coli.” J Biol Chem 268:9466-9472, 1993.]. […] Purity of the enzyme preparation was >90% as assessed by Mass spectrometry.
In vitro activity: Recombinant human liver FBPase (hIFBPase) activity was assayed through measuring the inorganic phosphate release that results from the hydrolysis of Fructose-1,6-bisphosphate by the enzyme. […] Anal. Biochem., 171:266-270, 1988], inorganic phosphate can be readily quantified by spectrophotometry at 620 nm after complexation with ammonium molybdate/malachite green reagent. […] Under these conditions, the assay was linear with time and able to detect FBPase inhibition after spectrophotometric read-out at 620 nm.

| pIC50 (human liver FBPase) | melting point [°C] | Compound |
| --- | --- | --- |
| 7.77 | – | O=C(NCCCCCCNC(=O)NS(=O)(=O)c1cccc(Cl)c1)NS(=O)(=O)c1cccc(Cl)c1 [Example 1] |
| – | 165 to 167 | O=C(NCCSSCCNC(=O)NS(=O)(=O)c1cccc(Cl)c1)NS(=O)(=O)c1cccc(Cl)c1 [Example 3, N,N′-[dithiobis(ethane-2,1-diyliminocarbonyl)]bis(3-chlorobenzenesulfonamide)] |
| 7.66 | – | Cc1cccc(S(=O)(=O)NC(=O)NCCCCCCNC(=O)NS(=O)(=O)c2cccc(C)c2)c1 [Example 8, N,N′-[hexane-1,6-diylbis(iminocarbonyl)]bis(3-methylbenzenesulfonamide)] |
